# Counter-ions that a name gives are not always drawn.
# Target: T1, human EP3 receptor (Homo sapiens, UniProt P43115)
# T1 construct: expressed in transfected cells; host or cells: CHO K1 (Chinese Hamster Ovary), stably co-transfected with Galpha16 and mitochondrial clytin
# T1 sequence (P43115 1-390): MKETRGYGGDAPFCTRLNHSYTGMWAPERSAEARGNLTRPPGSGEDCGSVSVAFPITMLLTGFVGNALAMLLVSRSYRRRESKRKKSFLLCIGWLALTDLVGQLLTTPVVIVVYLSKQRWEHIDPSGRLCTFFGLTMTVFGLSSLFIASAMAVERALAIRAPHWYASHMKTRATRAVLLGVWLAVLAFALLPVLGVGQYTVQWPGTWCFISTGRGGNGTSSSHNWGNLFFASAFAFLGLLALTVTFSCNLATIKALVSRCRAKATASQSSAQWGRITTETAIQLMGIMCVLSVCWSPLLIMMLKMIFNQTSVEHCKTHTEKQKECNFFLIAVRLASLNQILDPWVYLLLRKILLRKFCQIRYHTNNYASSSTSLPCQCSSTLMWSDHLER
# Experiment: Cellular in vitro assay for determining EP3 receptor activity (human EP3 cell line, sulprostone-stimulated calcium luminescence)
# Format: cell-based
# Conditions: CHO cells expressing human EP3 and mitochondrial Clytin; antagonist mode, sulprostone at EC50; read-out: EP3 CHO mtCLY ANTAG IC50
# Outline: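 CHO K1 cells stably expressing human EP3 with Gα16 and mitochondrial Clytin, loaded overnight with coelenterazine. Compounds added 10 min before sulprostone at its EC50; antagonism read immediately as reduced calcium-driven luminescence, quadruplicate points.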
row,IC50 [nM],Structure (SMILES)
1,5,"O=C(NC1(c2ccc(F)cc2)CN(C(CF)CF)C1)c1nn2cc(-c3ccc4ccccc4c3)[nH]c(=O)c2c1C(F)(F)F [Example 1-177, N-[1-(1,3-Difluoropropan-2-yl)-3-(4-fluorophenyl)azetidin-3-yl]-6-(naphthalen-2-yl)-4-oxo-3-(trifluoro-methyl)-4,5-dihydropyrazolo[1,5-a]pyrazine-2-carboxamide]"
2,1.7,"O=C(N[C@H](CN1CCOCC1)c1ccccc1)c1cc2c(=O)[nH]c(-c3ccc4ccccc4c3)cn2n1 [Example 1-7, N-[(1S)-2-(Morpholin-4-yl)-1-phenylethyl]-6-(naphthalen-2-yl)-4-oxo-4,5-dihydropyrazolo[1,5-a]-pyrazine-2-carboxamide formic acid salt]"
3,3.05,Cc1ccc(-c2cn3nc(C(=O)NC4(c5ccc(F)cc5)CN(CC(F)(F)F)C4)c(C(F)(F)F)c3c(=O)[nH]2)cc1Cl [6-201]
4,3.35,CC(C)c1c(C(=O)NC2(c3ccc(F)cc3)CN(C)C2)nn2cc(-c3cccc(Cl)c3)[nH]c(=O)c12 [6-684]
5,3.45,"C[C@@H](NC(=O)c1cc2c(=O)[nH]c(-c3ccc4c(c3)CCC4)cn2n1)c1ccc(F)cc1 [Example 1-98, 6-(2,3-Dihydro-1H-inden-5-yl)-N-[(1R)-1-(4-fluorophenyl)ethyl]-4-oxo-4,5-dihydropyrazolo[1,5-a]-pyrazine-2-carboxamide]"
6,1.65,"CC(NC(=O)c1cc2c(=O)[nH]c(-c3ccc4c(c3)OCCO4)cn2n1)c1ccc(F)cc1 (stereo not drawn) [Example 5-2, 6-(2,3-Dihydro-1,4-benzodioxin-6-yl)-N-[1-(4-fluorophenyl)ethyl]-4-oxo-5H-pyrazolo[1,5-a]pyrazine-2-carboxamide]"
7,1.4,Cc1cc(-c2cn3nc(C(=O)NC4(c5ccc(F)cc5)CN(C5CC5)C4)c(C(F)(F)F)c3c(=O)[nH]2)ccc1Cl [6-238]
8,2.3,Cc1ccc(-c2cn3nc(C(=O)NC(CO)C(F)(F)F)c(C(F)(F)F)c3c(=O)[nH]2)cc1Cl (racemic) [6-161]
9,3.7,"CCc1ccc(C(C)NC(=O)c2nn3cc(-c4cnc5cccc(C)c5c4)[nH]c(=O)c3c2C(C)C)cc1 (stereo not drawn) [Example 4-9, N-[1-(4-Ethylphenyl)ethyl]-3-isopropyl-6-(5-methyl-3-quinolyl)-4-oxo-5H-pyrazolo[1,5-a]pyrazine-2-carboxamide]"
10,2.97,C[C@@H](NC(=O)c1cc2c(=O)[nH]c(-c3ccc4ccccc4c3)cn2n1)c1ccc(F)cc1 [6-78]
11,0.45,CC(C)(O)[C@@H](NC(=O)c1nn2cc(-c3cccc(Cl)c3)[nH]c(=O)c2c1C1CC1)c1ccc(F)cc1 [6-677]
12,1.09,CC(C)c1c(C(=O)N[C@H](CCO)c2ccc(F)cc2)nn2cc(-c3cccc(Cl)c3)[nH]c(=O)c12 [6-682]
13,3.25,Cc1cc(-c2cn3nc(C(=O)N[C@H](CN4CC(F)C4)c4ccc(F)cc4)c(C(F)(F)F)c3c(=O)[nH]2)ccc1Cl [6-231]
14,2.45,"O=C(NCc1nc2ccccc2[nH]1)c1cc2c(=O)[nH]c(-c3ccc4ccccc4c3)cn2n1 [Example 2-24, N-(1H-Benzimidazol-2-ylmethyl)-6-(2-naphthyl)-4-oxo-4,5-dihydropyrazolo[1,5-a]pyrazine-2-carboxamide]"
15,2.5,O=C(N[C@@H](c1ccc(F)cc1)C(F)(F)CO)c1nn2cc(-c3ccc(Cl)c(Cl)c3)[nH]c(=O)c2c1C1CCC1 [6-567]
16,1.03,"Cc1cccc2ncc(-c3cn4nc(C(=O)N[C@@H](c5ccc(F)cc5)C(C)(C)O)c(C(C)C)c4c(=O)[nH]3)cc12 [Example 1-89, N-[(1S)-1-(4-Fluorophenyl)-2-hydroxy-2-methylpropyl]-6-(5-methylquinolin-3-yl)-4-oxo-3-(propan-2-yl)-4,5-dihydropyrazolo[1,5-a]pyrazine-2-carboxamide]"
17,3.35,Cc1ccc(-c2cn3nc(C(=O)NCC(C)(C)O)c(C4CC4)c3c(=O)[nH]2)cc1Cl [6-285]
18,1.7,"Cc1ccc(-c2cn3nc(C(=O)N[C@H](C)C(C)C)c(C(C)C)c3c(=O)[nH]2)cc1C [Example 1-141, 6-(3,4-Dimethylphenyl)-N-[(2R)-3-methylbutan-2-yl]-4-oxo-3-(propan-2-yl)-4,5-dihydropyrazolo-[1,5-a]pyrazine-2-carboxamide]"
19,4.75,Cc1ccc(-c2cn3nc(C(=O)NCCN(CC(F)F)C4CC4)c(C(F)(F)F)c3c(=O)[nH]2)cc1Cl [6-152]
20,6.67,CC[C@@H](C)NC(=O)c1nn2cc(-c3ccc(Cl)c(C)c3)[nH]c(=O)c2c1C(F)(F)F [6-227]

row,IC50 [nM],Structure (SMILES)
1,0.84,"Cc1cccc2ncc(-c3cn4nc(C(=O)NC5(c6ccccc6)CC5)c(C(C)C)c4c(=O)[nH]3)cc12 [Example 4-43, 6-(5-Methylquinolin-3-yl)-4-oxo-N-(1-phenylcyclopropyl)-3-(propan-2-yl)-4,5-dihydropyrazolo[1,5-a]pyrazine-2-carboxamide]"
2,2.3,"Cc1ccc(-c2cn3nc(C(=O)NCC(C)(N)C(F)(F)F)c(C(F)(F)F)c3c(=O)[nH]2)cc1Cl (single isomer, unassigned) [6-171]"
3,2.9,"CC(C)CN1CC(NC(=O)c2nn3cc(-c4ccc5ccccc5c4)[nH]c(=O)c3c2C(F)(F)F)(c2ccc(F)cc2)C1 [Example 1-128, N-[3-(4-Fluorophenyl)-1-(2-methylpropyl)azetidin-3-yl]-6-(naphthalen-2-yl)-4-oxo-3-(trifluoromethyl)-4,5-dihydropyrazolo[1,5-a]pyrazine-2-carboxamide]"
4,1.02,COCc1c(C(=O)N[C@@H](c2ccc(F)cc2)C(F)(F)CO)nn2cc(-c3ccc(C)c(Cl)c3)[nH]c(=O)c12 [6-626]
5,27,Cc1ccc(-c2cn3nc(C(=O)NC4(c5ccc(F)cc5)CCN(C)C4)cc3c(=O)[nH]2)cc1C (racemic) [6-362]
6,1.7,"Cc1ccc(-c2cn3nc(C(=O)N[C@H](C)c4ccc(C(F)(F)F)cc4)cc3c(=O)[nH]2)cc1C [Example 1-15, 6-(3,4-Dimethylphenyl)-4-oxo-N-{(1R)-1-[4-(trifluoromethyl)phenyl]ethyl}-4,5-dihydropyrazolo-[1,5-a]pyrazine-2-carboxamide]"
7,1.7,"Cc1ccc(-c2cn3nc(C(=O)N[C@H](C)c4ccc(F)cc4)c(C(F)(F)F)c3c(=O)[nH]2)cc1C [Example 1-95, 6-(3,4-Dimethylphenyl)-N-[(1R)-1-(4-fluorophenyl)ethyl]-4-oxo-3-(trifluoromethyl)-4,5-dihydropyrazolo[1,5-a]pyrazine-2-carboxamide]"
8,1.65,"COc1ccc(C(C)NC(=O)c2cc3c(=O)[nH]c(-c4ccc5ccccc5c4)cn3n2)cc1 (stereo not drawn) [Example 2-3, N-[1-(4-Methoxyphenyl)ethyl]-6-(2-naphthyl)-4-oxo-4,5-dihydropyrazolo[1,5-a]pyrazine-2-carboxamide]"
9,3.05,Cc1ccc(-c2cn3nc(C(=O)NCC(O)C(F)F)c(C4CC4)c3c(=O)[nH]2)cc1F (racemic) [6-369]
10,3.3,"Cc1cc(-c2cn3nc(C(=O)NC(C)C4CCC4)c(C4CC4)c3c(=O)[nH]2)ccc1Cl (single isomer, unassigned) [6-300]"
11,1.18,"Cc1cc(-c2cn3nc(C(=O)NC(c4ccc(F)cc4)C4(O)CC4)c(C(F)(F)F)c3c(=O)[nH]2)ccc1Cl (single isomer, unassigned) [6-211]"
12,0.78,"Cc1ccc(-c2cn3nc(C(=O)NC(c4ccc(F)cc4)C4(O)CC4)c(C4CC4)c3c(=O)[nH]2)cc1F (single isomer, unassigned) [6-382]"
13,3.9,"COc1ccc([C@H](CCO)NC(=O)c2nn3cc(-c4ccc5ccccc5c4)[nH]c(=O)c3c2C#N)cc1 [Example 3-63, 3-Cyano-N-[(1S)-3-hydroxy-1-(4-methoxyphenyl)propyl]-6-(naphthalen-2-yl)-4-oxo-4,5-dihydropyrazolo[1,5-a]pyrazine-2-carboxamide]"
14,5.8,"Cc1ccc(-c2cn3nc(C(=O)N[C@@H](c4ccc(F)cc4)C(C)(C)O)c(C(C)C)c3c(=O)[nH]2)cc1C [Example 1-135, 6-(3,4-Dimethylphenyl)-N-[(1S)-1-(4-fluorophenyl)-2-hydroxy-2-methylpropyl]-4-oxo-3-(propan-2-yl)-4,5-dihydropyrazolo[1,5-a]pyrazine-2-carboxamide]"
15,4.5,"CC(NC(=O)c1cc2c(=O)[nH]c(-c3ccc4ccccc4c3)cn2n1)c1ccc(S(N)(=O)=O)cc1 (stereo not drawn) [Example 2-37, 6-(2-Naphthyl)-4-oxo-N-[1-(4-sulfamoylphenyl)ethyl]-4,5-dihydropyrazolo[1,5-a]pyrazine-2-carboxamide]"
16,1.01,"CCn1cc(Cl)c(CNC(=O)c2nn3cc(-c4cnc5cccc(C)c5c4)[nH]c(=O)c3c2C(C)C)n1 [Example 4-23, N-[(4-Chloro-1-ethyl-1H-pyrazol-3-yl)methyl]-6-(5-methylquinolin-3-yl)-4-oxo-3-(propan-2-yl)-4,5-dihydropyrazolo[1,5-a]pyrazine-2-carboxamide]"
17,0.14,"Cc1ccc(-c2cn3nc(C(=O)N[C@H](CCO)c4ccccc4)cc3c(=O)[nH]2)cc1C [Example 1-14, 6-(3,4-Dimethylphenyl)-N-[(1R)-3-hydroxy-1-phenylpropyl]-4-oxo-4,5-dihydropyrazolo[1,5-a]-pyrazine-2-carboxamide]"
18,13,O=C(NC1CCN(C2CC2)C1)c1nn2cc(-c3ccc4ccccc4c3)[nH]c(=O)c2c1C(F)(F)F (racemic) [6-499]
19,2.35,C[C@@H](NC(=O)c1nn2cc(-c3ccc4ccccc4c3)[nH]c(=O)c2c1C#N)c1ccc(F)cc1 [6-68]

# Source: patent US20220324865A1 (Bayer Aktiengesellschaft, priority 2018, published 2022)
